The subject of one test is UAE-1. The note with it: cited from earlier work.
For a further test, the system named is gp140. The conditions noted are these: subcutaneous booster in monkeys first immunized with Hub-TGDK-UPA-CpGODN-gp140-Fetuin, after anti-gp140 titer had decreased (about one year and a half). From the text:
The resulting modified gene of SIVmac239 Env was transferred into simian Vero cells and a monomer and a trimer of SIVmac239 Env gp140 were constructed.

Regarding `NCCNC(=O)[C@H](CCCCNC(=O)[C@H](CCCCNC(=O)c1cc(O)c(O)c(O)c1)NC(=O)c1cc(O)c(O)c(O)c1)NC(=O)[C@H](CCCCNC(=O)c1cc(O)c(O)c(O)c1)NC(=O)c1cc(O)c(O)c(O)c1` [TGDK, N^2,N^6-bis[N^2,N^6-bis(3,4,5-trihydroxybenzoyl)-L-lysyl]-N-(2-aminoethyl)-L-lysine amide], the “mode of inhibition of UAE-1” value in the test on UAE-1 is given as “competitive inhibitor”.
On to Fetuin, for which the “production of anti-gp140 antibodies after booster” value in the test with gp140 was “production of anti-gp140 antibodies was confirmed”.

These data come from patent US20150024001A1, “MOLECULAR MIMIC MUCOSAL AIDS VACCINE” (priority 2011, published 2015).
